Drawing on PubChem BioAssay AID256 (DTP/NCI, 2004), this text covers T/C for 19 compounds.

“And” between values parts separate entries of the source, which are not always exact repeats. Identical values can stand only once. Toxic doses and inconclusive results are not listed.

This test deals with CD2F1 mice, L1210 leukemia ip, survival T/C. Briefly: NCI In Vivo Anticancer Drug Screen. Data for tumor model L1210 Leukemia (intraperitoneal) in CD2F1 (CDF1) mice. As to conditions: endpoint: mean survival time, higher = longer survival. In outline: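 Ratio T/C, where T is the treated-group value and C the vehicle-dosed control value, from mice implanted with a transplantable tumor.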

[1] abbreviates: dose: 100.0 mg/kg/injection, schedule: Q01DX001 (ip), vehicle: saline with Tween-80.
Setting [2] is: dose: 75.0 mg/kg/injection, schedule: Q01DX001 (ip), vehicle: other.
Setting [3] is: dose: 150.0 mg/kg/injection, schedule: Q01DX001 (ip), vehicle: other.
[4] abbreviates: dose: 100.0 mg/kg/injection, schedule: Q04DX003 (ip), vehicle: saline with Tween-80.
The mark [5] stands for this setting: dose: 200.0 mg/kg/injection, schedule: Q04DX003 (ip), vehicle: saline with Tween-80.
[6] abbreviates: dose: 400.0 mg/kg/injection, schedule: Q04DX003 (ip), vehicle: saline with Tween-80.
Setting [7] is: dose: 200.0 mg/kg/injection, schedule: Q01DX001 (ip), vehicle: saline with Tween-80.
[8] abbreviates: dose: 400.0 mg/kg/injection, schedule: Q01DX001 (ip), vehicle: saline with Tween-80.

With `CN1CC(NC(=O)N(CCCl)N=O)CC2c3cccc4[nH]cc(c34)CC21` (configuration not stated), the T/C was 119 % of control (dose: 12.5 mg/kg/injection, schedule: Q01DX001 (ip), vehicle: other); 154 % of control (dose: 50.0 mg/kg/injection, schedule: Q01DX001 (ip), vehicle: other); 248 % of control (dose: 100.0 mg/kg/injection, schedule: Q01DX001 (ip), vehicle: other); 390 % of control (dose: 200.0 mg/kg/injection, schedule: Q01DX001 (ip), vehicle: other); 98 % of control (dose: 400.0 mg/kg/injection, schedule: Q01DX001 (ip), vehicle: other).

For `NNc1c(F)ccc(F)c1F`, the T/C is 100 % of control (dose: 25.0 mg/kg/injection, schedule: Q01DX001 (ip), vehicle: saline with Tween-80); 100 % of control (dose: 50.0 mg/kg/injection, schedule: Q01DX001 (ip), vehicle: saline with Tween-80); 94 % of control under setting [1].

On to `CCN1CCCSC1=S`, for which the T/C under setting [2] is 98 % of control and the T/C under setting [3] is 103 % of control.

On to `Cc1c(NS(=O)(=O)c2ccccc2)c(C)c(NS(=O)(=O)c2ccccc2)c(C)c1NS(=O)(=O)c1ccccc1`, for which the T/C runs as follows: (dose: 50.0 mg/kg/injection, schedule: Q04DX003 (ip), vehicle: saline with Tween-80) 92 % of control; under setting [4], 88 % of control and 93 % of control; under setting [5], 93 % of control and 94 % of control; under setting [6], 96 % of control.

For `N#Cc1cn(C2CCCCC2)c2[nH]c(=O)cc(O)c12`, the T/C reads like this: (dose: 100.0 mg/kg/injection, schedule: Q04DX003 (ip), vehicle: saline) 97 % of control; (dose: 200.0 mg/kg/injection, schedule: Q04DX003 (ip), vehicle: saline) 101 % of control; (dose: 400.0 mg/kg/injection, schedule: Q04DX003 (ip), vehicle: saline) 121 % of control.

Consider `CCC[CH2][Sn]1([CH2]CCC)[O]CC2OC(n3cc(C)c(=O)[nH]c3=O)CC2[O]1` (configuration not stated), for which the T/C by setting is: (dose: 0.78 mg/kg/injection, schedule: Q01DX005 (ip), vehicle: other) 97 % of control; (dose: 1.56 mg/kg/injection, schedule: Q01DX005 (ip), vehicle: other) 101 % of control; (dose: 3.13 mg/kg/injection, schedule: Q01DX005 (ip), vehicle: other) 106 % of control.

For the compound `C=CCN(CC=C)P(=O)(N(CC=C)CC=C)N1CC1`, the T/C was 151 % of control (dose: 11.0 mg/kg/injection, schedule: Q01DX015 (ip), vehicle: saline) and 114 % of control (dose: 17.0 mg/kg/injection, schedule: Q01DX015 (ip), vehicle: saline).

Regarding `CC(C)C1C=CC(C)(/C=C/N2CCCC2)CC1` (configuration not stated), the T/C reads like this: under setting [2], 98 % of control; under setting [3], 98 % of control; (dose: 300.0 mg/kg/injection, schedule: Q01DX001 (ip), vehicle: other) 102 % of control.

As to `CCCCCCCCCCCCOC(=O)c1ccc([N+](=O)[O-])cc1`, the T/C under setting [1] was 94 % of control, the T/C under setting [7] is 91 % of control and the T/C under setting [8] is 91 % of control.

Regarding `CN1CCCN(C)C1c1cc(Cl)ccc1O`, the T/C reads like this: (dose: 6.25 mg/kg/injection, schedule: Q01DX009 (ip), vehicle: saline with Tween-80) 98 % of control; (dose: 12.5 mg/kg/injection, schedule: Q01DX009 (ip), vehicle: saline with Tween-80) 98 % of control; (dose: 25.0 mg/kg/injection, schedule: Q01DX009 (ip), vehicle: saline with Tween-80) 98 % of control; under setting [4], 103 % of control; under setting [5], 121 % of control; under setting [6], 95 % of control.

As for `N#CCCCCCN=[N+]=[N-]`, the T/C runs as follows: (dose: 75.0 mg/kg/injection, schedule: Q01DX001 (ip), vehicle: saline) 98 % of control; (dose: 150.0 mg/kg/injection, schedule: Q01DX001 (ip), vehicle: saline) 101 % of control.

Turning to `O=Cc1c2c(cc3ccccc13)Nc1ccccc1N2`, the T/C (dose: 100.0 mg/kg/injection, schedule: Q04DX002 (ip), vehicle: saline + alcohol) was 89 % of control; the T/C (dose: 200.0 mg/kg/injection, schedule: Q04DX002 (ip), vehicle: saline + alcohol) is 89 % of control; the T/C (dose: 400.0 mg/kg/injection, schedule: Q04DX002 (ip), vehicle: saline + alcohol) is 86 % of control.

In the case of `CC(CCC/C=C/CCCN(C)C(=N)N)CC(C)C1OC(=O)C(C)C(O)/C=C/C(C)C(O)C(C)C(O)C(C)C(O)CCCC(O)CC2(O)OC(CC(OC(=O)CC(=O)O)CC(O)CC(O)C(C)C(O)/C=C/C=C/C1C)CC(O)C2O` (configuration not stated), the T/C (dose: 5.5 mg/kg/injection, schedule: Q01DX009 (ip), vehicle: saline) was 100 % of control.

For `CSCSCC(N)CO` (configuration not stated), the T/C reads like this: (dose: 25.0 mg/kg/injection, schedule: Q01DX009 (ip), vehicle: Klucel (hydroxypropylcellulose) (HPC)) 102 % of control; (dose: 50.0 mg/kg/injection, schedule: Q01DX009 (ip), vehicle: Klucel (hydroxypropylcellulose) (HPC)) 94 % of control; (dose: 100.0 mg/kg/injection, schedule: Q01DX009 (ip), vehicle: Klucel (hydroxypropylcellulose) (HPC)) 93 % of control; (dose: 200.0 mg/kg/injection, schedule: Q01DX009 (ip), vehicle: Klucel (hydroxypropylcellulose) (HPC)) 96 % of control; (dose: 400.0 mg/kg/injection, schedule: Q01DX009 (ip), vehicle: Klucel (hydroxypropylcellulose) (HPC)) 96 % of control.

With `C/C=C/COc1c(C)cc(C)cc1/C=C/C`, the T/C (dose: 100.0 mg/kg/injection, schedule: Q04DX002 (ip), vehicle: saline with Tween-80) is 94 % of control; the T/C (dose: 200.0 mg/kg/injection, schedule: Q04DX002 (ip), vehicle: saline with Tween-80) was 94 % of control; the T/C (dose: 400.0 mg/kg/injection, schedule: Q04DX002 (ip), vehicle: saline with Tween-80) is 102 % of control.

As for `COC1CC2C3CCC4(OC5CC(C)CN(C(C)=O)C5C4C)C(C)=C3C(=O)C2C2(C)CCC3CC312` (configuration not stated), the T/C is, setting by setting: under setting [4], 106 % of control; under setting [5], 101 % of control; under setting [6], 104 % of control.

Turning to `O=C(O)c1cccc(S(=O)(=O)N(CCO)CCO)c1`, the T/C by setting is: (dose: 100.0 mg/kg/injection, schedule: Q01DX009 (ip), vehicle: saline with Tween-80) 94 % of control; under setting [4], 98 % of control; (dose: 200.0 mg/kg/injection, schedule: Q01DX009 (ip), vehicle: saline with Tween-80) 94 % of control; under setting [5], 94 % of control; under setting [6], 94 % of control.

Consider `CCc1ccc(OC2OC(CO)C(OC3OC(CO)C(O)C(O)C3O)C(O)C2O)cc1` (configuration not stated), for which the T/C was 92 % of control (dose: 75.0 mg/kg/injection, schedule: Q01DX001 (ip), vehicle: steriod suspending solution); 92 % of control (dose: 150.0 mg/kg/injection, schedule: Q01DX001 (ip), vehicle: steriod suspending solution); 95 % of control (dose: 300.0 mg/kg/injection, schedule: Q01DX001 (ip), vehicle: steriod suspending solution).

Regarding `Cc1ccc(S(=O)(=O)N/N=C/c2ccc(Cl)s2)cc1`, the T/C is, setting by setting: under setting [1], 94 % of control; under setting [7], 97 % of control; under setting [8], 97 % of control.
